The text below walks through data of patent US9365851B2, “Spalt-like transcription factor 4 (SALL4) and uses thereof” (National University of Singapore, priority 2011, dated 2016).

One data set has as its system SALL4. Briefly: SALL4 knock-down in HCC cells (qPCR, Western blot). It counts as cell-based, human. The method, then: Lentiviruses expressing scrambled shRNA or E5 SALL4-specific shRNA were packaged by treansfection of 293T cells with lentiviral vector pLL3.7. 24 hours and 48 hours post-transfection, viruses were harvested and filtered through […]. Virus titers were determined by FACS analysis of GFP expression using infected 3T3 cells by the conventional ways. MOI 0.5 to 5 was used dependent on individual cell lines. Transduction of HCC cells were carried out using spinoculation protocol, virus was added to the trypsinized cells and let settle for an hour at 37° C. in a humidified atmostphere of 5% CO2, centrifuged at 2,200 RPM at 37° C. for 90 mins and incubated overnight at 37° C. in a humidified atmostphere of 5% CO2. Transduction efficiency was determined by GFP expression by FACS analysis.
After successfully establishing the expression pattern of SALL4 in human livers at various stages and the clinical significance of SALL4 in HCC, the functional roles of SALL4 in HCC was investigated. […] The efficiency of virus transduction was assessed by FACS analysis of GFP expression. […]
Next, the potential of SALL4 as a molecular target for therapeutic intervention in HCC was examined by performing loss-of-function studies. […] The efficiency of virus transduction was assessed by the percentage of cells expressing GFP by flow cytometry. […]

A further data set concerns AN3CA cells. Put plainly: Cell viability assay (MTT/MTS). The conditions noted are these: AN3CA (high SALL4, no PTEN). It counts as cell-based, human. The method, then: Cell viability assay (MTT) (Invitrogen) was performed according to the manufacturer's instructions. Briefly—10000 cells were seeded in 100 ul medium in 96 well plates. The next day cells were treated as indicated on the figures. At the designated time after the treatment 20 ul of 5 mg/ml MTT solution was added to each well. After 3.5 h incubation at 37 C the medium was removed and the reaction was terminated with a solution of 4 mM HCl, 0.1% Nondet P-40 (NP40) all in isopropanol in dark on orbital shaker for […]. at room temperature. The absorbance was read at 590 nm with a reference filter of 620 nm in Spectromax M3 (ABI) spectrophotometer.
Multiple leukemic and solid tumor cancer cell lines with high or low/no SALL4 expression (FIG. 10A) were chosen to test the biological effect(s) of the wild type peptide. Wild type or scrambled peptide was delivered into tumor cells at various concentrations, and their effects on cells were evaluated 72 hours post-treatment by the MTS cell viability assay. […] The effect of wild type peptide is SALL4-specific, as it had no effect on KBM5, an AML cell line with undetectable endogenous SALL4 expression. We were surprised to see that the wild type peptide had no effect on a high SALL4-expressing endometrioid cancer cell line, AN3CA. […] Therefore, expression of PTEN was evaluated in AN3CA cells along with other cell lines. […]

The next data set relates to PTEN/AKT pathway. Briefly: PTEN/AKT pathway expression in KBM5 cells (Western blot). It is filed as cell-based. An excerpt: To further evaluate the specificity of the SALL4/PTEN pathway, next investigated was whether wild type peptide treatment could affect the expression of PTEN and its downstream target, phosphorylated AKT (pAKT).
In general terms: In western blotting, separated proteins are transferred to a membrane and probed.

A further data set deals with HDAC1 and HDAC2. Briefly: Anti-FITC pull-down from HL60 cell lysates, immunoblot for HDAC1 and HDAC2. It is filed as binding, human. The method, then: FIG. 18: SALL4 peptide interacts with various components of the NuRD complex. Cell lysates from HL60 cells were mixed with wild type (wt) or mutant (mut) peptides end-labeled with FITC and immunoprecipitated with anti-FITC antibody (Santa Cruz). The complexes were pulled down with Dynabeads Antibody Coupling Kit (Invitrogen) according to the manufacturer's instructions. The samples were immunoblotted and probed for HDAC1 and HDAC2. […] The specificity was tested with mouse IgG instead of anti-FITC antibody.

As to “CTATTTAGCCAAAGGCAAA (short hairpin RNA, chemistry and delivery not given here, further chemistry not given here) [E5 shRNA]”, the “SALL4 isoforms mRNA level after knockdown” value in the data set with SALL4 (SNU-398, four days post-transduction) was determined as 70%. In addition, the “SALL4 protein level after knockdown” value in the data set on SALL4 (Western blot) is recorded as “almost all SALL4 proteins were gone”.
For “H-MSRRKQAKPQHI-OH [wt peptide, MSRRKQAKPQHI]”, the cell viability entry with AN3CA cells is “had no effect”. The “levels of PTEN and pAKT” value in the data set with PTEN/AKT pathway is “little or no effect”. Moreover, the “binding to HDAC1 and HDAC2” value in the data set on HDAC1 and HDAC2 is on record as “several folds higher activity than the mutant”.
